# How the values were obtained:
# Eimeria maxima [1] = experiment: Anticoccidial activity against Eimeria maxima in chickens assessed as reduction of oocysts at 8 ppm measured after 8 days by ExMAC assay relative to untreated control; assay type: functional; set-up: scale not given: the % may be the effect or the level left
# Eimeria maxima [2] = experiment: Anticoccidial activity against Eimeria maxima in chickens assessed as reduction of oocysts at 6 ppm measured after 8 days by ExMAC assay relative to untreated control; assay type: functional; set-up: scale not given: the % may be the effect or the level left
# Eimeria maxima [3] = experiment: Anticoccidial activity against Eimeria maxima in chickens assessed as reduction of oocysts at 10 ppm measured after 8 days by ExMAC assay relative to untreated control; assay type: functional; set-up: scale not given: the % may be the effect or the level left
# [4] = biological target: cGMP-dependent protein kinase (Eimeria tenella, UniProt Q8MMZ8); experiment: Inhibition of Eimeria tenella cGMP-dependent protein kinase
# Sequence of cGMP-dependent protein kinase (Q8MMZ8 whole entry): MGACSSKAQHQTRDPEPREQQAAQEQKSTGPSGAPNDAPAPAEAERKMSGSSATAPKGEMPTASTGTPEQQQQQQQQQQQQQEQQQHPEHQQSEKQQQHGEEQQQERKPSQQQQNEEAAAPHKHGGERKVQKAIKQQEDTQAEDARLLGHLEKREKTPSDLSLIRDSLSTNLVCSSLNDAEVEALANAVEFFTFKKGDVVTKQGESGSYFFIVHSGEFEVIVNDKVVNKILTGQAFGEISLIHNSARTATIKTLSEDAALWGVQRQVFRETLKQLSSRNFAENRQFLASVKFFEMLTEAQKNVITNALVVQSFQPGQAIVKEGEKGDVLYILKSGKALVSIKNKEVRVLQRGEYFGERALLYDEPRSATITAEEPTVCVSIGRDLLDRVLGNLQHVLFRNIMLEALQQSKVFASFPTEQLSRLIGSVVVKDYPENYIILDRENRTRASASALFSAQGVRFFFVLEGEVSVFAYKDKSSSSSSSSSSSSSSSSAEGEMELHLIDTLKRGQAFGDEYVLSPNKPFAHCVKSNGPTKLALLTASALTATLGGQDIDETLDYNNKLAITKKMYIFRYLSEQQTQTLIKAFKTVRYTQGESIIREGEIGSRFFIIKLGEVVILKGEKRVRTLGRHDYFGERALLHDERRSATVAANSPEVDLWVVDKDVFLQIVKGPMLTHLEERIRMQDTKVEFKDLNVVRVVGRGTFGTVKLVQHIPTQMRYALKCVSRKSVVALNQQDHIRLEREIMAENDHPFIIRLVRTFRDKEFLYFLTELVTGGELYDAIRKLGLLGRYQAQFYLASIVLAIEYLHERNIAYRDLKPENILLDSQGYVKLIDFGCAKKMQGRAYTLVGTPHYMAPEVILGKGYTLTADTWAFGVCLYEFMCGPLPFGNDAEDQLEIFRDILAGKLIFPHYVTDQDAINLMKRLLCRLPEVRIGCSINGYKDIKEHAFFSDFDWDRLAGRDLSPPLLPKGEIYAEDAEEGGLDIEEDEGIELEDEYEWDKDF
# Eimeria tenella [5] = experiment: Anticoccidial activity against Eimeria tenella in chickens assessed as reduction of oocysts at 25 ppm measured after 8 days by ExMAC assay relative to untreated control; assay type: functional; set-up: scale not given: the % may be the effect or the level left
# Eimeria tenella [6] = experiment: Anticoccidial activity against Eimeria tenella in chickens assessed as reduction of oocysts at 12.5 ppm measured after 8 days by ExMAC assay relative to untreated control; assay type: functional; set-up: scale not given: the % may be the effect or the level left
# Eimeria tenella [7] = experiment: Anticoccidial activity against Eimeria tenella in chickens assessed as reduction of oocysts at 8 ppm measured after 8 days by ExMAC assay relative to untreated control; assay type: functional; set-up: scale not given: the % may be the effect or the level left
# Eimeria tenella [8] = experiment: Anticoccidial activity against Eimeria tenella in chickens assessed as reduction of oocysts at 6 ppm measured after 8 days by ExMAC assay relative to untreated control; assay type: functional; set-up: scale not given: the % may be the effect or the level left
# Eimeria tenella [9] = experiment: Anticoccidial activity against Eimeria tenella in chickens assessed as reduction of oocysts at 10 ppm measured after 8 days by ExMAC assay relative to untreated control; assay type: functional; set-up: scale not given: the % may be the effect or the level left
# Eimeria acervulina [10] = experiment: Anticoccidial activity against Eimeria acervulina in chickens assessed as reduction of oocysts at 25 ppm measured after 8 days by ExMAC assay relative to untreated control; assay type: functional; set-up: scale not given: the % may be the effect or the level left
# Eimeria acervulina [11] = experiment: Anticoccidial activity against Eimeria acervulina in chickens assessed as reduction of oocysts at 12.5 ppm measured after 8 days by ExMAC assay relative to untreated control; assay type: functional; set-up: scale not given: the % may be the effect or the level left
# Eimeria acervulina [12] = experiment: Anticoccidial activity against Eimeria acervulina in chickens assessed as reduction of oocysts at 8 ppm measured after 8 days by ExMAC assay relative to untreated control; assay type: functional; set-up: scale not given: the % may be the effect or the level left
# Eimeria acervulina [13] = experiment: Anticoccidial activity against Eimeria acervulina in chickens assessed as reduction of oocysts at 6 ppm measured after 8 days by ExMAC assay relative to untreated control; assay type: functional; set-up: scale not given: the % may be the effect or the level left
# Eimeria acervulina [14] = experiment: Anticoccidial activity against Eimeria acervulina in chickens assessed as reduction of oocysts at 10 ppm measured after 8 days by ExMAC assay relative to untreated control; assay type: functional; set-up: scale not given: the % may be the effect or the level left
# Eimeria mitis [15] = experiment: Anticoccidial activity against Eimeria mitis in chickens assessed as reduction of oocysts at 25 ppm measured after 8 days by ExMAC assay relative to untreated control; assay type: functional; set-up: scale not given: the % may be the effect or the level left
# Eimeria mitis [16] = experiment: Anticoccidial activity against Eimeria mitis in chickens assessed as reduction of oocysts at 12.5 ppm measured after 8 days by ExMAC assay relative to untreated control; assay type: functional; set-up: scale not given: the % may be the effect or the level left
# Eimeria mitis [17] = experiment: Anticoccidial activity against Eimeria mitis in chickens assessed as reduction of oocysts at 8 ppm measured after 8 days by ExMAC assay relative to untreated control; assay type: functional; set-up: scale not given: the % may be the effect or the level left
# Eimeria mitis [18] = experiment: Anticoccidial activity against Eimeria mitis in chickens assessed as reduction of oocysts at 6 ppm measured after 8 days by ExMAC assay relative to untreated control; assay type: functional; set-up: scale not given: the % may be the effect or the level left
# Eimeria mitis [19] = experiment: Anticoccidial activity against Eimeria mitis in chickens assessed as reduction of oocysts at 10 ppm measured after 8 days by ExMAC assay relative to untreated control; assay type: functional; set-up: scale not given: the % may be the effect or the level left
# Eimeria maxima [20] = experiment: Anticoccidial activity against Eimeria maxima in chickens assessed as reduction of oocysts at 25 ppm measured after 8 days by ExMAC assay relative to untreated control; assay type: functional; set-up: scale not given: the % may be the effect or the level left
# Eimeria maxima [21] = experiment: Anticoccidial activity against Eimeria maxima in chickens assessed as reduction of oocysts at 12.5 ppm measured after 8 days by ExMAC assay relative to untreated control; assay type: functional; set-up: scale not given: the % may be the effect or the level left
# Eimeria tenella [22] = experiment: Anticoccidial activity against Eimeria tenella in chickens assessed as reduction of oocysts at 6.25 ppm measured after 8 days by ExMAC assay relative to untreated control; assay type: functional; set-up: scale not given: the % may be the effect or the level left
# Eimeria tenella [23] = experiment: Anticoccidial activity against Eimeria tenella in chickens assessed as reduction of oocysts at 3.1 ppm measured after 8 days by ExMAC assay relative to untreated control; assay type: functional; set-up: scale not given: the % may be the effect or the level left
# Eimeria acervulina [24] = experiment: Anticoccidial activity against Eimeria acervulina in chickens assessed as reduction of oocysts at 6.25 ppm measured after 8 days by ExMAC assay relative to untreated control; assay type: functional; set-up: scale not given: the % may be the effect or the level left
# Eimeria acervulina [25] = experiment: Anticoccidial activity against Eimeria acervulina in chickens assessed as reduction of oocysts at 3.1 ppm measured after 8 days by ExMAC assay relative to untreated control; assay type: functional; set-up: scale not given: the % may be the effect or the level left
# Eimeria mitis [26] = experiment: Anticoccidial activity against Eimeria mitis in chickens assessed as reduction of oocysts at 6.25 ppm measured after 8 days by ExMAC assay relative to untreated control; assay type: functional; set-up: scale not given: the % may be the effect or the level left
# Eimeria mitis [27] = experiment: Anticoccidial activity against Eimeria mitis in chickens assessed as reduction of oocysts at 3.1 ppm measured after 8 days by ExMAC assay relative to untreated control; assay type: functional; set-up: scale not given: the % may be the effect or the level left
# Eimeria maxima [28] = experiment: Anticoccidial activity against Eimeria maxima in chickens assessed as reduction of oocysts at 6.25 ppm measured after 8 days by ExMAC assay relative to untreated control; assay type: functional; set-up: scale not given: the % may be the effect or the level left
# Eimeria maxima [29] = experiment: Anticoccidial activity against Eimeria maxima in chickens assessed as reduction of oocysts at 3.1 ppm measured after 8 days by ExMAC assay relative to untreated control; assay type: functional; set-up: scale not given: the % may be the effect or the level left
# Eimeria maxima [30] = experiment: Anticoccidial activity against Eimeria maxima in chickens assessed as reduction of oocysts at 1 ppm measured after 8 days by ExMAC assay relative to untreated control; assay type: functional; set-up: scale not given: the % may be the effect or the level left
# Eimeria tenella [31] = experiment: Anticoccidial activity against Eimeria tenella in chickens assessed as reduction of oocysts at 2 ppm measured after 8 days by ExMAC assay relative to untreated control; assay type: functional; set-up: scale not given: the % may be the effect or the level left
# Eimeria acervulina [32] = experiment: Anticoccidial activity against Eimeria acervulina in chickens assessed as reduction of oocysts at 2 ppm measured after 8 days by ExMAC assay relative to untreated control; assay type: functional; set-up: scale not given: the % may be the effect or the level left
# Eimeria acervulina [33] = experiment: Anticoccidial activity against Eimeria acervulina in chickens assessed as reduction of oocysts at 1 ppm measured after 8 days by ExMAC assay relative to untreated control; assay type: functional; set-up: scale not given: the % may be the effect or the level left
# Eimeria mitis [34] = experiment: Anticoccidial activity against Eimeria mitis in chickens assessed as reduction of oocysts at 4 ppm measured after 8 days by ExMAC assay relative to untreated control; assay type: functional; set-up: scale not given: the % may be the effect or the level left
# Eimeria mitis [35] = experiment: Anticoccidial activity against Eimeria mitis in chickens assessed as reduction of oocysts at 2 ppm measured after 8 days by ExMAC assay relative to untreated control; assay type: functional; set-up: scale not given: the % may be the effect or the level left
# Eimeria mitis [36] = experiment: Anticoccidial activity against Eimeria mitis in chickens assessed as reduction of oocysts at 1 ppm measured after 8 days by ExMAC assay relative to untreated control; assay type: functional; set-up: scale not given: the % may be the effect or the level left
# Eimeria maxima [37] = experiment: Anticoccidial activity against Eimeria maxima in chickens assessed as reduction of oocysts at 4 ppm measured after 8 days by ExMAC assay relative to untreated control; assay type: functional; set-up: scale not given: the % may be the effect or the level left
# Eimeria maxima [38] = experiment: Anticoccidial activity against Eimeria maxima in chickens assessed as reduction of oocysts at 2 ppm measured after 8 days by ExMAC assay relative to untreated control; assay type: functional; set-up: scale not given: the % may be the effect or the level left
Structure (SMILES),Activity (Eimeria maxima [1]) [%],IC50 [4] [nM],Activity (Eimeria tenella [5]) [%],Activity (Eimeria tenella [6]) [%],Activity (Eimeria tenella [7]) [%],Activity (Eimeria acervulina [10]) [%],Activity (Eimeria acervulina [11]) [%],Activity (Eimeria acervulina [12]) [%],Activity (Eimeria mitis [15]) [%],Activity (Eimeria mitis [16]) [%],Activity (Eimeria mitis [17]) [%],Activity (Eimeria maxima [20]) [%],Activity (Eimeria maxima [21]) [%],Activity (Eimeria tenella [22]) [%],Activity (Eimeria acervulina [24]) [%],Activity (Eimeria mitis [26]) [%],Activity (Eimeria maxima [28]) [%],other results
CN1CCC(c2ccn3c(-c4ccnc(N)n4)c(-c4ccc(F)cc4)nc3c2)CC1,100,0.044,100,100,100,100,100,80,100,100,80,100,100,–,–,–,–,Activity (Eimeria maxima [2]): 100%; Activity (Eimeria maxima [3]): 100%; Activity (Eimeria tenella [8]): 100%; Activity (Eimeria tenella [9]): 100%; Activity (Eimeria acervulina [13]): 80%; Activity (Eimeria acervulina [14]): 100%; Activity (Eimeria mitis [18]): 80%; Activity (Eimeria mitis [19]): 100%
CC(c1ccn2c(-c3ccnc(N)n3)c(-c3ccc(F)cc3)nc2c1)N(C)C (stereo not given),–,0.09,–,–,–,–,–,–,–,–,–,–,–,100,100,100,<50,Activity (Eimeria tenella [23]): 100%; Activity (Eimeria acervulina [25]): 80%; Activity (Eimeria mitis [27]): 80%; Activity (Eimeria maxima [29]): 100%
CCC(c1ccn2c(-c3ccnc(N)n3)c(-c3ccc(F)cc3)nc2c1)N(C)C (stereo not given),50,0.13,–,100,50,–,100,80,–,100,<50,–,100,–,–,–,–,–
CN(C)C(C)(C)c1ccn2c(-c3ccnc(N)n3)c(-c3ccc(F)cc3)nc2c1,100,0.11,–,–,100,–,–,100,–,–,<50,–,–,100,100,80,80,–
CCN1CCC(c2ccn3c(-c4ccnc(N)n4)c(-c4ccc(F)cc4)nc3c2)CC1,100,0.11,100,100,100,100,80,80,100,100,80,100,100,–,–,–,–,Activity (Eimeria maxima [2]): <50%; Activity (Eimeria maxima [3]): 100%; Activity (Eimeria tenella [8]): 100%; Activity (Eimeria tenella [9]): 100%; Activity (Eimeria acervulina [13]): <50%; Activity (Eimeria acervulina [14]): 80%; Activity (Eimeria mitis [18]): 80%; Activity (Eimeria mitis [19]): 80%
CN(C)CCc1ccn2c(-c3ccnc(N)n3)c(-c3ccc(F)cc3)nc2c1,–,0.46,100,100,–,100,100,–,100,80,–,100,100,100,80,<50,50,–
CCN(CC)Cc1ccn2c(-c3ccnc(N)n3)c(-c3ccc(F)cc3)nc2c1,–,0.17,80,80,–,50,50,–,80,<50,–,80,80,<50,<50,50,<50,–
"CC(c1ccn2c(-c3ccnc(N)n3)c(-c3ccc(F)cc3)nc2c1)N(C)C (single isomer, unassigned; enantiomer A)",–,0.28,–,–,–,–,–,–,–,–,–,–,–,–,–,–,–,Activity (Eimeria maxima [30]): 50%; Activity (Eimeria tenella [31]): <50%; Activity (Eimeria acervulina [32]): <50%; Activity (Eimeria acervulina [33]): <50%; Activity (Eimeria mitis [34]): <50%; Activity (Eimeria mitis [35]): <50%; Activity (Eimeria mitis [36]): 50%; Activity (Eimeria maxima [37]): <50%; Activity (Eimeria maxima [38]): 50%
